Laboratory results from patent publication US8334287B2 (Hoffmann-La Roche Inc., priority 2009, dated 2012).

The compounds below were run against T1, human mGlu5a receptor (Homo sapiens, UniProt P41594) (assay: mGlu5a receptor binding, displacement of [3H]MPEP). Settings: competing radioligand [3H]MPEP; human mGlu5a receptor transiently transfected into EBNA cells; Ki=IC50/1+L/Kd.
T1 construct: expressed in transfected cells; host or cells: EBNA cells (transient transfection); membranes prepared from them
T1 sequence (P41594 21-1180 isoform P41594-2 limits assumed): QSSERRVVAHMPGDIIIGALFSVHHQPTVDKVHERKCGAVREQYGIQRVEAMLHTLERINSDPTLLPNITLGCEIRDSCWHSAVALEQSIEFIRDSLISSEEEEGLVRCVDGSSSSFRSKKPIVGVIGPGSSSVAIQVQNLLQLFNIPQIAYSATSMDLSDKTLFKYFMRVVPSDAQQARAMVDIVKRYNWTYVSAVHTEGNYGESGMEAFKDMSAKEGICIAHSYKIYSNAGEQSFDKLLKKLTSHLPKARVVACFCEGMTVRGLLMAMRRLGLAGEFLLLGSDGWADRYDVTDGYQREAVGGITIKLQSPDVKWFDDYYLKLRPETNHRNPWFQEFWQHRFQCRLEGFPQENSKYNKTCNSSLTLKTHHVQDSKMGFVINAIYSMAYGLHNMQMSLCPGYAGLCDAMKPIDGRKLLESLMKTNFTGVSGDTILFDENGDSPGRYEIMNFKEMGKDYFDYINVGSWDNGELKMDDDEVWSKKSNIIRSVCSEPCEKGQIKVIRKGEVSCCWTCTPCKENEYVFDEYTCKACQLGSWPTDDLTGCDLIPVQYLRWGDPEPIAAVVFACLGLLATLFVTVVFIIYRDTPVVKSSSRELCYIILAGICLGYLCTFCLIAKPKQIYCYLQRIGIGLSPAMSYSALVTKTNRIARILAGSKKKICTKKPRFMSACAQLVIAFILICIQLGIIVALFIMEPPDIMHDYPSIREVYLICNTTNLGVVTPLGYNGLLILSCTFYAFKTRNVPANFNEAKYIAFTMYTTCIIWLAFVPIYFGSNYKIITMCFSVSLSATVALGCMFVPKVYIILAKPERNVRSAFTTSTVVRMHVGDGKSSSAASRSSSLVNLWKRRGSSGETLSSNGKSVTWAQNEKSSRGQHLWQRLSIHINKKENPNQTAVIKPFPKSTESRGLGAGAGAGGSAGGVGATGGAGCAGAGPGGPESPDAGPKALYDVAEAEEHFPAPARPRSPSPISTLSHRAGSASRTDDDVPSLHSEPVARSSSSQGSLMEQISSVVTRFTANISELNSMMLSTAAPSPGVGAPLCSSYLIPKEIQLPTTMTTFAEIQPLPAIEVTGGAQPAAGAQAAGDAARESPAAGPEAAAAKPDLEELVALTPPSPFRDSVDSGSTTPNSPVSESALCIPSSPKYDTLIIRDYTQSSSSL
Procedure: For binding experiments, cDNA encoding human mGlu5a receptor was transiently transfected into EBNA cells using a procedure described by E.-J. Schlaeger and K. Christensen (Cytotechnology 1998, 15, 1-13). For functional assays, [Ca^2+]i measurements were performed largely as described previously (Porter et al., Br J. Pharmacol 1999, 128, 13-20) on stably expressed recombinant human mGlu 5a receptors in HEK-293 cells. The cells were dye loaded using Fluo 4-AM (purchased from Molecular Probes, 2 μM final concentration) [Ca^2+]i measurements were performed using a fluorometric imaging plate reader (FLIPR, Molecular Devices Corporation, La Jolla, Calif., USA). Antagonist evaluation was performed following a 5 minute preincubation with the test compounds followed by the addition of a submaximal addition of agonist.
The inhibition (antagonists) curves were fitted with a four parameter logistic equation giving IC50, and Hill coefficient using the iterative non linear curve fitting software Xcel fit.
The Ki values of the compounds tested are given. The Ki value is defined by the following formula: Ki=IC50/1+L/Kd in which the IC50 values are those concentrations of the compounds tested in which causes 50% inhibition of the competing radioligand ([^3H]MPEP). [L] is the concentration of radioligand used in the binding experiment and the Kd value of the radioligand is empiracally determined for each batch of membranes prepared.
In the case of Cc1cccc(C#Cc2nc(C)n(-c3ccn(CCO)c(=O)c3)c2C)c1 [Example 33, 4-[2,5-dimethyl-4-m-tolylethynyl-imidazol-1-yl]-1-(2-hydroxy-ethyl)-1H-pyridin-2-one], the Ki is reported as 446 nM. In the case of Cc1cccc(C#Cc2cn(-c3cnn(C)c(=O)c3)c(C)n2)c1 [Example 23, 2-Methyl-5-(2-methyl-4-m-tolylethynyl-imidazol-1-yl)-2H-pyridazin-3-one], the Ki is reported as 52 nM. Cc1nc(C#Cc2cccc(Cl)c2)c(C)n1-c1ccn(CCO)c(=O)c1 [Example 28, 4-[4-(3-chloro-phenylethynyl)-2,5-dimethyl-imidazol-1-yl]-1-(2-hydroxy-ethyl)-1H-pyridin-2-one] showed a Ki of 222 nM. CCn1ccc(-n2cc(C#Cc3cccc(Cl)c3)nc2C)cc1=O [Example 3, 4-[4-(3-chloro-phenylethynyl)-2-methyl-imidazol-1-yl]-1-ethyl-1H-pyridin-2-one] was tested, and the Ki was 39 nM. Work on COCCn1ncc(-n2cc(C#Cc3cccc(Cl)c3)nc2C)cc1=O [Example 55, 5-[4-(3-Chloro-phenylethynyl)-2-methyl-imidazol-1-yl]-2-(2-methoxy-ethyl)-2H-pyridazin-3-one] yielded a Ki of 93 nM. For Cc1nc(C#Cc2cccc(Cl)c2)cn1-c1cccc(=O)n1C [Example 15, 6-[4-(3-chloro-phenylethynyl)-2-methyl-imidazol-1-yl]-1-methyl-1H-pyridin-2-one], the Ki was 154 nM. COCCn1ncc(-n2cc(C#Cc3cccc(C)c3)nc2C)cc1=O [Example 54, 2-(2-methoxy-ethyl)-5-(2-methyl-4-m-tolylethynyl-imidazol-1-yl)-2H-pyridazin-3-one] was tested, and the Ki was 131 nM. Cc1cccc(C#Cc2cn(-c3ccn(CS(C)(=O)=O)c(=O)c3)c(C)n2)c1 [Example 50] showed a Ki of 559 nM. Work on Cc1cccc(C#Cc2nc(C)n(-c3ccn(C)c(=O)c3)c2C)c1 [Example 31, 4-[2,5-dimethyl-4-m-tolylethynyl-imidazol-1-yl]-1-methyl-1H-pyridin-2-one] yielded a Ki of 61 nM. Cc1cccc(C#Cc2nc(C)n(-c3cnn(C)c(=O)c3)c2C)c1 [Example 44, 5-(2,5-dimethyl-4-m-tolylethynyl-imidazol-1-yl)-2-methyl-2H-pyridazin-3-one] was tested, and the Ki was 71 nM. COCCn1ccc(-n2cc(C#Cc3cccc(C)c3)nc2C)cc1=O [Example 12, 1-(2-Methoxy-ethyl)-4-(2-methyl-4-m-tolylethynyl-imidazol-1-yl)-1H-pyridin-2-one] was tested, and the Ki was 40 nM. Cc1nc(C#Cc2cccc(Cl)c2)c(C)n1-c1cc[nH]c(=O)c1 [Example 25, 4-[4-(3-chloro-phenylethynyl)-2,5-dimethyl-imidazol-1-yl]-1H-pyridin-2-one] showed a Ki of 148 nM. Cc1cccc(C#Cc2nc(C)n(-c3cc(=O)n(C)cn3)c2C)c1 [Example 45, 6-(2,5-dimethyl-4-m-tolylethynyl-imidazol-1-yl)-3-methyl-3H-pyrimidin-4-one] was tested, and the Ki was 74 nM. Cc1nc(C#Cc2ccnc(Cl)c2)cn1-c1cnn(C)c(=O)c1 [Example 22, 5-[4-(2-chloro-pyridin-4-ylethynyl)-2-methyl-imidazol-1-yl]-2-methyl-2H-pyridazin-3-one] showed a Ki of 384 nM. For CCn1ccc(-n2c(C)nc(C#Cc3ccnc(Cl)c3)c2C)cc1=O [Example 37, 4-[4-(2-chloro-pyridin-4-ylethynyl)-2,5-dimethyl-imidazol-1-yl]-1-ethyl-1H-pyridin-2-one], the Ki was 238 nM. CCn1ccc(-n2c(C)nc(C#Cc3cccc(Cl)c3)c2C)cc1=O [Example 27, 4-[4-(3-chloro-phenylethynyl)-2,5-dimethyl-imidazol-1-yl]-1-ethyl-1H-pyridin-2-one] was tested, and the Ki was 40 nM. In the case of Cc1nc(C#Cc2cccc(Cl)c2)cn1-c1cc[nH]c(=O)c1 [Example 1, 4-[4-(3-chloro-phenylethynyl)-2-methyl-imidazol-1-yl]-1H-pyridin-2-one], the Ki is reported as 40 nM. For Cc1nc(C#Cc2ccnc(Cl)c2)cn1-c1cncc(=O)[nH]1 [Example 19, 6-[4-(2-chloro-pyridin-4-ylethynyl)-2-methyl-imidazol-1-yl]-1H-pyrazin-2-one], the Ki was 504 nM. In the case of Cc1nc(C#Cc2cccc(F)c2)c(C)n1-c1ccn(C)c(=O)c1 [Example 41, 4-[4-(3-fluoro-phenylethynyl)-2,5-dimethyl-imidazol-1-yl]-1-methyl-1H-pyridin-2-one], the Ki is reported as 52 nM. Cc1nc(C#Cc2ccnc(Cl)c2)c(C)n1-c1cnn(C)c(=O)c1 [Example 43, 5-[4-(2-chloro-pyridin-4-ylethynyl)-2,5-dimethyl-imidazol-1-yl]-2-methyl-2H-pyridazin-3-one] showed a Ki of 306 nM. CCn1ncc(-n2cc(C#Cc3cccc(Cl)c3)nc2C)cc1=O [Example 52, 5-[4-(3-Chloro-phenylethynyl)-2-methyl-imidazol-1-yl]-2-ethyl-2H-pyridazin-3-one] gave a Ki of 37 nM. In the case of Cc1nc(C#Cc2ccnc(Cl)c2)cn1-c1cncc(=O)n1C [Example 20, 6-[4-(2-chloro-pyridin-4-ylethynyl)-2-methyl-imidazol-1-yl]-1-methyl-1H-pyrazin-2-one], the Ki is reported as 817 nM. With Cc1cccc(C#Cc2cn(-c3cc[nH]c(=O)c3)c(C)n2)c1 [Example 8, 4-(2-Methyl-4-m-tolylethynyl-imidazol-1-yl)-1H-pyridin-2-one] the Ki was 113 nM. Cc1nc(C#Cc2ccnc(Cl)c2)c(C)n1-c1ccn(C)c(=O)c1 [Example 36, 4-[4-(2-chloro-pyridin-4-ylethynyl)-2,5-dimethyl-imidazol-1-yl]-1-methyl-1H-pyridin-2-one] was tested, and the Ki was 173 nM. For Cc1nc(C#Cc2ccnc(Cl)c2)cn1-c1cc[nH]c(=O)c1 [Example 6, 4-[4-(2-chloro-pyridin-4-ylethynyl)-2-methyl-imidazol-1-yl]-1H-pyridin-2-one], the Ki was 146 nM. CNC(=O)Cn1ccc(-n2cc(C#Cc3cccc(C)c3)nc2C)cc1=O [Example 48, N-methyl-2-[4-(2-methyl-4-m-tolylethynyl-imidazol-1-yl)-2-oxo-2H-pyridin-1-yl]-acetamide] gave a Ki of 788 nM. With Cc1nc(C#Cc2cccc(Cl)c2)cn1-c1cnn(C)c(=O)c1 [Example 21, 5-[4-(3-chloro-phenylethynyl)-2-methyl-imidazol-1-yl]-2-methyl-2H-pyridazin-3-one] the Ki was 40 nM. Cc1nc(C#Cc2cccc(Cl)c2)cn1-c1cccc(O)n1 [Example 14, 6-[4-(3-chloro-phenylethynyl)-2-methyl-imidazol-1-yl]-pyridin-2-ol] was tested, and the Ki was 42 nM. Compound Cc1cccc(C#Cc2cn(-c3ccn(CCO)c(=O)c3)c(C)n2)c1 [Example 11, 1-(2-Hydroxy-ethyl)-4-(2-methyl-4-m-tolylethynyl-imidazol-1-yl)-1H-pyridin-2-one] has a Ki of 265 nM. For Cc1nc(C#Cc2cccc(Cl)c2)c(C)n1-c1ccn(C)c(=O)c1 [Example 26, 4-[4-(3-chloro-phenylethynyl)-2,5-dimethyl-imidazol-1-yl]-1-methyl-1H-pyridin-2-one], the Ki was 33 nM. Compound CCn1ncc(-n2cc(C#Cc3ccnc(Cl)c3)nc2C)cc1=O [Example 53, 5-[4-(2-chloro-pyridin-4-ylethynyl)-2-methyl-imidazol-1-yl]-2-ethyl-2H-pyridazin-3-one] has a Ki of 204 nM. Compound Cc1nc(C#Cc2ccnc(Cl)c2)cn1-c1cc(=O)n(C)cn1 [Example 24, 6-[4-(2-chloro-pyridin-4-ylethynyl)-2-methyl-imidazol-1-yl]-3-methyl-3H-pyrimidin-4-one] has a Ki of 277 nM. Work on COCCn1ncc(-n2cc(C#Cc3ccnc(Cl)c3)nc2C)cc1=O [Example 56] yielded a Ki of 597 nM. Cc1nc(C#Cc2ccnc(Cl)c2)cn1-c1ccn(C)c(=O)c1 [Example 7, 4-[4-(2-chloro-pyridin-4-ylethynyl)-2-methyl-imidazol-1-yl]-1-methyl-1H-pyridin-2-one] showed a Ki of 180 nM. For COCCn1ccc(-n2c(C)nc(C#Cc3ccnc(Cl)c3)c2C)cc1=O [Example 39, 4-[4-(2-chloro-pyridin-4-ylethynyl)-2,5-dimethyl-imidazol-1-yl]-1-(2-methoxy-ethyl)-1H-pyridin-2-one], the Ki was 285 nM. Compound COCCn1ncc(-n2c(C)nc(C#Cc3ccnc(Cl)c3)c2C)cc1=O [Example 57, 5-[4-(2-Chloro-pyridin-4-ylethynyl)-2,5-dimethyl-imidazol-1-yl]-2-(2-methoxy-ethyl)-2H-pyridazin-3-one] has a Ki of 808 nM. COCCn1ccc(-n2c(C)nc(C#Cc3cccc(Cl)c3)c2C)cc1=O [Example 29, 4-[4-(3-chloro-phenylethynyl)-2,5-dimethyl-imidazol-1-yl]-1-(2-methoxy-ethyl)-1H-pyridin-2-one] showed a Ki of 58 nM. Compound CCn1ncc(-n2cc(C#Cc3cccc(C)c3)nc2C)cc1=O [Example 51, 2-ethyl-5-(2-methyl-4-m-tolylethynyl-imidazol-1-yl)-2H-pyridazin-3-one] has a Ki of 53 nM. Work on Cc1nc(C#Cc2ccnc(Cl)c2)cn1-c1cccc(O)n1 [Example 17, 6-[4-(2-chloro-pyridin-4-ylethynyl)-2-methyl-imidazol-1-yl]-pyridin-2-ol] yielded a Ki of 144 nM. Work on Cc1nc(C#Cc2cccc(Cl)c2)c(C)n1-c1cnn(C)c(=O)c1 [Example 42, 5-[4-(3-chloro-phenylethynyl)-2,5-dimethyl-imidazol-1-yl]-2-methyl-2H-pyridazin-3-one] yielded a Ki of 38 nM.
